Assay results from patent US20240351994A1, “MAXI-K POTASSIUM CHANNEL OPENERS FOR THE TREATMENT OF FRAGILE X ASSOCIATED DISORDERS” (Kaerus Bioscience Limited, priority 2020, published 2024).

Legend:
[1] = target: T1, BK channels (HEK-293 cell line expressing functional alpha subunits of BK channels) (Homo sapiens, UniProt Q12791); assay: Whole-cell patch clamp assay of BK channel stimulatory activity; format: cell-based; settings: 3 μM, percentage of control, stably transfected HEK-293 cells
T1 construct: expressed in transfected cells; host or cells: HEK-293 (stably transfected; geneticin and blasticidin selection)
Experimental: HEK-293 cell line expressing functional alpha subunits of BK channels were passaged at a confluence of 50 to 80%. Cells were seeded into 35 mm sterile culture dishes containing 2 mL culture complete medium. Cells were cultivated at a density that enables single cells (without visible connections to neighbouring cells) to be measured.
Cells were incubated at 37° C. in a humidified atmosphere with 5% CO2 (relative humidity about 95%). […]
The 35 mm culture dishes upon which cells were seeded at a density allowing single cells to be recorded were placed on the dish holder of the microscope and continuously perfused (at approximately 1 mL/min) with the bath solution described. […]
Values (in pA/nA) of the current amplitudes were generated for each voltage step. The recorded current amplitudes at the steady state level of current modulation (+50 mV) were compared to those from control conditions measured in the pre-treatment phase of the same cell with SigmaPlot. The amount of current modulation was calculated as percentage of control. Data from at least 2 individual experiments were collected and the corresponding mean values and standard errors calculated.

[2] = single intraperitoneal (IP) injection of 2 mg/kg; cited from earlier work
[3] = tested on: plasma proteins; settings: cited from earlier work

T1 sequence (Q12791 whole entry): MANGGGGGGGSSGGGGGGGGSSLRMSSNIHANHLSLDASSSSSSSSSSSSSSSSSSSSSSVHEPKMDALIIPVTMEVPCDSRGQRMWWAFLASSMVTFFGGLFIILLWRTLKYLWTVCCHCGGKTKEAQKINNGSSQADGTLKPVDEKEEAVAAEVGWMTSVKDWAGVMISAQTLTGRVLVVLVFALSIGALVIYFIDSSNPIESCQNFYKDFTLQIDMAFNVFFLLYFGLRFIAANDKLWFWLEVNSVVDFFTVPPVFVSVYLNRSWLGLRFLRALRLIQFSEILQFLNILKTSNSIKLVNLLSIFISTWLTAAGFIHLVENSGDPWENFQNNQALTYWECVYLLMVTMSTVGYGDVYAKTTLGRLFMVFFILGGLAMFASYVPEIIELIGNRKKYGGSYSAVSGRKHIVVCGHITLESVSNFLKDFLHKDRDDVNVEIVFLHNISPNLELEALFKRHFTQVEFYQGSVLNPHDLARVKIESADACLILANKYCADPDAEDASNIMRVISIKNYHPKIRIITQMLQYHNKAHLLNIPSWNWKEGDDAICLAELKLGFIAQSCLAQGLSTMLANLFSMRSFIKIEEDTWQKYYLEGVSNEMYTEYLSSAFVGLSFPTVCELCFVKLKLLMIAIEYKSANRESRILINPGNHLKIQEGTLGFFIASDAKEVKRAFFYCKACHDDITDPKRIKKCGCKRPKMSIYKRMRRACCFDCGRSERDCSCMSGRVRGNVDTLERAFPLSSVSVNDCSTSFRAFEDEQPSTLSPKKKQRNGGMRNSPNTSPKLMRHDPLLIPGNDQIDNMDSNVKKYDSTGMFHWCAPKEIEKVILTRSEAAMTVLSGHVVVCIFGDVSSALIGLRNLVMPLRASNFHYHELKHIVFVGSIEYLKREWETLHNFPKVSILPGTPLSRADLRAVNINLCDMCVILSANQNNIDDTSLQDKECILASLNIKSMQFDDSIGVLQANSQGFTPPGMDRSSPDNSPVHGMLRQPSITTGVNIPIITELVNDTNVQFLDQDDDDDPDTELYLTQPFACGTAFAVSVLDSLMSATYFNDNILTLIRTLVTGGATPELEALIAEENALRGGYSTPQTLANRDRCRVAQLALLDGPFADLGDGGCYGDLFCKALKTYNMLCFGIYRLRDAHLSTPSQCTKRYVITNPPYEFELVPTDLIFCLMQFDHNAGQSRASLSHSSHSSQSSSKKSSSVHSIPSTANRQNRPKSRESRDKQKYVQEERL

Structure (SMILES) | Mean stimulation of BK channel activity at +50 mV [1] | Cmax [2] | Covalent binding of metabolic degradation product to plasma proteins [3]
COc1ccc(Cl)cc1C1(C)C(=O)Nc2cc(C(F)(F)F)ccc21 (stereo not shown) [Example 1, 3-(5-chloro-2-methoxyphenyl)-3-methyl-6-(trifluoromethyl)indolin-2-one] | 204.09% | – | –
COc1ccc(Cl)cc1[C@]1(F)C(=O)Nc2cc(C(F)(F)F)ccc21 [BMS-204352, (3S)-(+)-(5-chloro-2-methoxyphenyl)-1,3-dihydro-3-fluoro-6-(trifluoromethyl)-2H-indol-2-one] | 216.59% | about 130 ng/mL | gives rise to a metabolic degradation product that covalently binds to plasma proteins
